Molecules are shown by their SMILES. Structures can show the parent of a compound that is named as a salt. Bounds are passed on as bounds.

Data set [1] has as its target T1, CYP 2E1 (Homo sapiens, UniProt P05181).
T1 construct: host or cells: baculovirus-infected insect cells (supersomes)
Nature of the data set: Cytochrome P450 testing, CYP 2E1. Type of data set: in vitro ADME. To be noted: chlorzoxazone 6-hydroxylation; read-out: Concentration of inhibition (IC50), CYP 2E1. From the text:
Cytochrome P450 testing of CN016
The effects of CN016 on the activity of six specific human liver cytochrome P450 isozymes (CYP 1A2, 2C9, 2C19, 2D6, 2E1, 3A4) expressed in baculovirus-infected insect cell supersomes were studied. The reactions used to measure the activity of these enzymes were phenacetin O-deethylation (1A2), diclofenac 4-hydroxylation (2C9), mephenytoin 4-hydroxylation (2C19), dextromethorphan O-demethylation (2D6), chlorzoxazone 6-hydroxylation (2E1) and testosterone 6-hydroxylation (3A4).
Furafylline, sulfaphenazole, tranylcypromine, quinidine, diethyldithiocarbamate and azamulin were used as reference inhibitors of these enzymes. Incubation mixtures containing no CN016 or reference inhibitors were used as controls. The tested result […]
Table S4. Result of Cytochrome P450 testing of CN016

In data set [2] the target is Calcium Channel N-Type (Rattus norvegicus, UniProt Q02294). Nature of the data set: LeadProfilingScreen: Calcium Channel N-Type. Type of data set: binding.
Chain of Calcium Channel N-Type (Q02294 whole entry): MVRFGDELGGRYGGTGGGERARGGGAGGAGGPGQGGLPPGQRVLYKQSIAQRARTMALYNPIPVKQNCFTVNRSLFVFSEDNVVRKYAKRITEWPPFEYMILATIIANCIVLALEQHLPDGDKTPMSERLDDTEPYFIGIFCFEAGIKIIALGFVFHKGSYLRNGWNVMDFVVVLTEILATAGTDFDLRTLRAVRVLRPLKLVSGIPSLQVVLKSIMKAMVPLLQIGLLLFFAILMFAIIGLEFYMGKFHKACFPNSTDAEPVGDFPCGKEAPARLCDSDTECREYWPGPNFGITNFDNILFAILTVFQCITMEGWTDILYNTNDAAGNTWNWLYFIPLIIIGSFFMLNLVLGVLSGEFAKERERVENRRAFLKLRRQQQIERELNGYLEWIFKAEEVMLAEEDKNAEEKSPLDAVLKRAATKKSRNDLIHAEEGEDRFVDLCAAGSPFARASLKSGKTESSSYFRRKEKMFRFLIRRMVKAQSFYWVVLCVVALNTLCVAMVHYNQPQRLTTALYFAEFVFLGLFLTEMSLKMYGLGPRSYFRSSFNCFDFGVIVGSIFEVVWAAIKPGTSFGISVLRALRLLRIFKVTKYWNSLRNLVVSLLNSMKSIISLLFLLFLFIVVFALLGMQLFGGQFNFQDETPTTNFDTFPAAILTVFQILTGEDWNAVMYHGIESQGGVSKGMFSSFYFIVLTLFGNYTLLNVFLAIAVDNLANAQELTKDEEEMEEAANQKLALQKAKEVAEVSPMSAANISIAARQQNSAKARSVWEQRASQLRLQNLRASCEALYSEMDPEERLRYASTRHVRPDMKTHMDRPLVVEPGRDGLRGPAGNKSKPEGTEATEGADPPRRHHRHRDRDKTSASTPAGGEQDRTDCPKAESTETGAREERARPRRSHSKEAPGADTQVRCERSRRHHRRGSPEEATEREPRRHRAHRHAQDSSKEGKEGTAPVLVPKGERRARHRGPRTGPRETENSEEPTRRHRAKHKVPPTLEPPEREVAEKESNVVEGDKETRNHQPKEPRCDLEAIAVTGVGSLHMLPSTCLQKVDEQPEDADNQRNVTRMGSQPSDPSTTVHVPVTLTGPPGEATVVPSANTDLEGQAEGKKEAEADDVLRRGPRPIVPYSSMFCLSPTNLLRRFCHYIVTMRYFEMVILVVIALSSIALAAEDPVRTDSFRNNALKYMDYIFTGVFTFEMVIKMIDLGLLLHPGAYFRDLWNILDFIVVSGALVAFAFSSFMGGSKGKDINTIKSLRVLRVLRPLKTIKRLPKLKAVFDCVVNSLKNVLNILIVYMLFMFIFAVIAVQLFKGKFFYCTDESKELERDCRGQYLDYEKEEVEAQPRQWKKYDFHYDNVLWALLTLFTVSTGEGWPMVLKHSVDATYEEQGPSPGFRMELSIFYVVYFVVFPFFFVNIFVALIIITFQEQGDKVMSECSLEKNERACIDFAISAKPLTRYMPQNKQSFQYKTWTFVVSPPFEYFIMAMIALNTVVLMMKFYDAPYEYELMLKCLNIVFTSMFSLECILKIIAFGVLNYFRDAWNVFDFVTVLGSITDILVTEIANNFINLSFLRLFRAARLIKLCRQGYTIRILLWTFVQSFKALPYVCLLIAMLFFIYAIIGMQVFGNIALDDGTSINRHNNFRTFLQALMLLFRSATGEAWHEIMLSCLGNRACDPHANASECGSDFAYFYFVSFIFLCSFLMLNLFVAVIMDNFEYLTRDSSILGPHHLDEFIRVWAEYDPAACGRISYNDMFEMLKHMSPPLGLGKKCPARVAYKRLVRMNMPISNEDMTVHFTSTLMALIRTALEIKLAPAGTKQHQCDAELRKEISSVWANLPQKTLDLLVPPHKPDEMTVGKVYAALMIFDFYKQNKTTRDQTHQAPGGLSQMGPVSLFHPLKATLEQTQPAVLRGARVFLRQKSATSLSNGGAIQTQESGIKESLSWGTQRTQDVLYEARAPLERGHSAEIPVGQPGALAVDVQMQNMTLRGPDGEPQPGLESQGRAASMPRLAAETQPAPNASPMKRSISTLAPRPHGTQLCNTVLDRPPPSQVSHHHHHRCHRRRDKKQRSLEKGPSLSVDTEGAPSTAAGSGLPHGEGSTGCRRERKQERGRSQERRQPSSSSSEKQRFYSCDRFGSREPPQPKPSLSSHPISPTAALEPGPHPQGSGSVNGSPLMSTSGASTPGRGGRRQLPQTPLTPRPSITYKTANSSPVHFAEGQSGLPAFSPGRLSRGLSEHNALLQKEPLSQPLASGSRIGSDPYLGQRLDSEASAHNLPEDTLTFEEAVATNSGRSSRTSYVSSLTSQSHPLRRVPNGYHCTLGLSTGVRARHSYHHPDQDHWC
The subject of data set [3] is Glutamate, NMDA, Agonism. Nature of the data set: LeadProfilingScreen: Glutamate, NMDA, Agonism. To be noted: 10 μM. In kind it is binding, rat.

T1 sequence (P05181 whole entry): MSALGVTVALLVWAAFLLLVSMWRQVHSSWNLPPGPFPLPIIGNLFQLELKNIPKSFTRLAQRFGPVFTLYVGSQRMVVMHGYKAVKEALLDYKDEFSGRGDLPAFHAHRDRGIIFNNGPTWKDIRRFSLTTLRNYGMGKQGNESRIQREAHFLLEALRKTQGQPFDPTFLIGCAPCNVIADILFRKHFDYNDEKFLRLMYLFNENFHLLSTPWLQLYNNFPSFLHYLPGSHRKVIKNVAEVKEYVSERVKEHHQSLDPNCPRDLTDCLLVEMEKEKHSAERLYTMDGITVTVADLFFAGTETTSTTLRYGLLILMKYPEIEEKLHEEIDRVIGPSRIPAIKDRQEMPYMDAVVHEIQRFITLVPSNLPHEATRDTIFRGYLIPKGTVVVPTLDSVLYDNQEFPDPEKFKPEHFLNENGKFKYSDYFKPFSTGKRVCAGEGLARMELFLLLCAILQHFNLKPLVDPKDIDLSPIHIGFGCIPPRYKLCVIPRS

For the compound `O=P(O)(O)CCN1CCC(Nc2cc(N3CCOCC3)nc(NCc3cn(CCCO)nn3)n2)CC1` [CN016, {2-[4-(2-{[1-(3-Hydroxy-propyl)-1H-[1,2,3]triazol-4-ylmethyl]-amino}-6-morpholin-4-yl-pyrimidin-4-ylamino)-piperidin-1-yl]-ethyl}-phosphonic Acid Hydrobromide Salt], the IC50 in data set [1] is greater than 100 µM. Besides, in data set [2], the inhibition – broadly, the drop in the measured response relative to a control, in per cent – at 10 µM was 1%. In addition, the “Inhibition (%), Glutamate, NMDA, Agonism” value in data set [3] is -3%.

These data come from PMC8958505, “Discovery of Potential Neuroprotective Agents against Paclitaxel-Induced Peripheral Neuropathy” (Journal of Medicinal Chemistry, 2022).
